Experimental findings from patent US20090312373A1, “METHODS FOR THE TREATMENT OF CANCER USING PIPERLONGUMINE AND PIPERLONGUMINE ANALOGS” (The General Hospital Corporation, priority 2008, published 2009) are described below.

The subject of series [1] is EJ bladder carcinoma and U2OS osteosarcoma cell lines. Put plainly: DNA damage in EJ bladder carcinoma and U2OS osteosarcoma cell lines. Format: cell-based, human. The text has this:
(§1) The conditions and time of exposure are indicated in the legend of the figure.

Series [2] concerns p53. The experiment in a line: p53 acetylation Western blot in U2OS cells. Format: cell-based, human. The conditions noted are these: 6 hours, TSA 10 mM. The protocol:
U2OS cells were treated with piperlongumine (SP), the HDAC inhibitor TSA (trichostatin A ([…])) or the control DMSO for 6 hours. Cell extracts were fractionated in SDS-PAGE gel and analyzed by western blot.
A general note: In western blotting, separated proteins are transferred to a membrane and probed.

The subject of series [3] is MMTV-PyVT mammary tumor. The experiment in a line: MMTV-PyVT spontaneous mammary tumor mouse model. Type of series: in vivo. An excerpt: MMTV-PvVT (FVB/N-Tg) transgenic mice develop multifocal mammary tumor (from hyperplasia to metastatic) with a high incidence of metastasis (Mice were obtained from the NCI repository). This mouse model has been widely used for the correlation studies of human cancer (Guy et al., Moll. Cell. Biol. 12: 954-961, 1992). In addition, this onco-mouse model has been used to evaluate the effectiveness of potential drug therapies. Generally, due to aggressiveness of tumor growth and spread in this mouse-model, only a combination of chemo-drugs is effective in tumor growth inhibition. MMTV-PyVT mice were maintained until mammary tumor size reached to 6 mm, and then piperlongumine (2.4 mg/kg) or vehicle (DMSO) was given daily by i.p. for 13 days. Tumor size was measured every 4 days (See FIGS. 31 and 32).
We compared the anti-tumor activity of piperlongumine (SP2007) with taxol, a well known chemo drug, in the MMTV-PyVT tumor mouse model as described above (8 mice per group). When tumor sizes grew to ˜5-6 mm in diameter, SP2007 (2.4 mg/kg/day) or Taxol (Paclitaxel, 10 mg/kg/day) was administered intraperitoneally (I.P.) daily for two weeks. After two weeks treatment, mice were sacrificed, and mammary tumors excised and the tumor sizes measured. […] The size of the grossly dissected tumors was measured using the formula: mean diameter=(A+B)/2.

The test system of series [4] is immortalized human breast epithelial cells. Put plainly: DNA damage markers in immortalized human breast epithelial cells. The conditions noted are these: taxol 10 nM. Format: cell-based.
Source text: as §1

The test system of series [5] is EJ bladder carcinoma cells. The experiment in a line: Persistent effects after removal of the compound in EJ cells. Type of series: cell-based, human. Conditions: 3 hrs treatment, washed, another 6 hrs in medium without compound. The protocol:
EJ bladder carcinoma cells were treated with SP2007 (P10: 10 μM and P20: 20 μM), taxol (T10: 10 nM and T20: 20 nM) or DMSO vehicle control for either 20 hrs or 3 hrs. For the 20 hrs experiment, the percentages of remaining living cells ware measured on the end of the 20 hrs treatment time point. […] For the 3 hrs experiment, cells were washed 3 times with PBS after treatment with the and incubated for another 6 hrs in growing medium without SP2007, taxol or DMSO.

Consider `COc1cccc2c1C(=O)c1c(O)c3c(c(O)c1C2=O)C[C@@](O)(C(=O)CO)C[C@@H]3O[C@H]1C[C@H](N)[C@H](O)[C@H](C)O1` [adrimycin, reference compound], for which the “DNA damage (phosphorylated gamma-H2AX levels)” value in series [1] is “results in the induction of DNA damage”.
Regarding `CC(/C=C/C(=O)NO)=C\[C@@H](C)C(=O)c1ccc(N(C)C)cc1` [TSA, reference compound], the “total amount of p53” value in series [2] is reported as “did not increase”.
Turning to `CC(=O)O[C@H]1C(=O)[C@@]2(C)[C@H]([C@H](OC(=O)c3ccccc3)[C@]3(O)C[C@H](OC(=O)[C@H](O)[C@@H](NC(=O)c4ccccc4)c4ccccc4)C(C)=C1C3(C)C)[C@]1(OC(C)=O)CO[C@@H]1C[C@@H]2O` [Taxol, reference compound], the secondary tumors result in series [3] (SP2007 2.4 mg/kg/day or Taxol 10 mg/kg/day i.p. for two weeks) is “moderate and secondary tumors appeared”. Also, the deaths during treatment result in series [3] (Taxol 10 mg/kg/day i.p. daily for two weeks) is on record as “two of the Taxol-treated mice died at day 10”. For the same compound, in series [4], the “phosphorylated gamma-H2AX and p53” value is “results in the induction”. In addition, the “killing of cancer cells after removal of the compound” value in series [5] is “significantly weakened”.
